After the bases stand the sugars from the 5' end (letter, count) and the backbone: PS all phosphorothioate, else s phosphorothioate and o phosphodiester by linkage. Methylation of C is not given here. l = locked nucleic acid (LNA); d = 2'-deoxy (DNA)
Target: SNHG14
Conditions: ASO
[1] = Mouse Primary Neuronal Cell, 0.005 µM

| Sequence | target mRNA inhibition (Human Neuronal Cell, 0.2 µM) [%] | target mRNA inhibition (Human Neuronal Cell, 1 µM) [%] | target mRNA inhibition (Human Neuronal Cell, 7.5 µM) [%] | other results |
| --- | --- | --- | --- | --- |
| CAGGCAGATAACCTCCAA (sugars l3 d12 l3, PS) | 12 | 20 |  | target mRNA inhibition (Human Neuronal Cell, 5 µM): 18% |
| CATTTACATTATTATTTAAC (sugars l2 d14 l4, PS) | 1 | -3 |  |  |
| CCAAGATAATCATCAT (sugars l3 d10 l3, PS) | 41 | 42 |  |  |
| CCATTCTATCTGCCAAA (sugars l2 d11 l4, PS) | 54 | 69 |  |  |
| CCATTTATTTCCATTTATT (sugars lddlllddddddldddlll, PS) |  |  | 54 |  |
| CCATTTATTTCCATTTATT (sugars ldldlddddddddldldll, PS) |  |  | 55 |  |
| CCATTTATTTCCATTTATT (sugars llddlddddddddldddll, PS) |  |  | 61 |  |
| CCATTTATTTCCATTTATTT (sugars ldlddlddddddddlddlll, PS) |  |  | 59 |  |
| CCCACCAAAGGATATATT (sugars l3 d12 l3, PS) | -28 | 33 |  | target mRNA inhibition (Human Neuronal Cell, 5 µM): 16% |
| CCTAAAGATCCCATCAC (sugars l2 d12 l3, PS) | 34 | 51 |  |  |
| CCTACATCTCATACTT (sugars l2 d10 l4, PS) |  |  |  | target mRNA inhibition [1]: 96.5% |
| CCTACATCTCATACTTGC (sugars l2 d12 l4, PS) |  |  |  | target mRNA inhibition [1]: 97.3% |
| CCTCAACTTCACCAAT (sugars l2 d10 l4, PS) | 37 | 49 |  |  |
| CTAAATAGATTCCACT (sugars l2 d10 l4, PS) | 26 | 52 |  |  |
| CTAAGCTCCATATTTA (sugars l4 d10 l2, PS) | 21 | 42 |  |  |
| CTACACATCTTGTATAC (sugars l3 d11 l3, PS) | 40 | 52 |  |  |
| CTATTCCAGTTTAAAT (sugars l4 d10 l2, PS) | 33 | 44 |  |  |
| CTCAGACATCTCAATA (sugars l4 d10 l2, PS) | 45 | 43 |  |  |
| CTGTATACACCATCCCA (sugars l1 d2 l2 d10 l2, PS) |  |  | 61 |  |
| CTGTATACACCATCCCA (sugars l1 d12 l1 d1 l2, PS) |  |  | 58 |  |
| CTGTATACACCATCCCA (sugars l1 d14 l2, PS) |  |  | 49 |  |
| CTGTATACACCATCCCA (sugars l2 d2 l1 d10 l2, PS) |  |  | 60 |  |

| Sequence | target mRNA inhibition (Human Neuronal Cell, 0.2 µM) [%] | target mRNA inhibition (Human Neuronal Cell, 1 µM) [%] | target mRNA inhibition (Human Neuronal Cell, 7.5 µM) [%] | other results |
| --- | --- | --- | --- | --- |
| CTGTATACACCATCCCA (sugars lddddddddddldldll, PS) |  |  | 49 |  |
| CTGTATACACCATCCCA (sugars ldddlddddddldddll, PS) |  |  | 29 |  |
| CTGTATACACCATCCCA (sugars lddldddddddddldll, PS) |  |  | 49 |  |
| CTGTATACACCATCCCA (sugars lddldddddddldddll, PS) |  |  | 55 |  |
| CTGTATACACCATCCCA (sugars ldlddddddddldddll, PS) |  |  | 52 |  |
| CTGTTTATACCCTTTCCA (sugars l1 d15 l2, PS) |  |  | 47 |  |
| CTGTTTATACCCTTTCCA (sugars ldlddddddddddlddll, PS) |  |  | 55 |  |
| CTGTTTATACCCTTTCCA (sugars ldldldddddddddddll, PS) |  |  | 56 |  |
| CTTACCAATAGTTACCT (sugars l3 d11 l3, PS) | 49 | 54 |  |  |
| CTTCCCTTTGATAACA (sugars l4 d10 l2, PS) | 12 | 32 |  |  |
| CTTCTTGTTTATCCCAA (sugars l2 d11 l4, PS) | 57 | 68 |  |  |
| CTTGCATTTCTAATTAC (sugars l3 d11 l3, PS) | 38 | 35 |  |  |
| CTTGTCAAATCATTTCT (sugars l4 d11 l2, PS) | 47 | 41 |  |  |
| CTTTCCAATGAATCTA (sugars l2 d10 l4, PS) | 39 | 55 |  |  |
| CTTTGACATTCCATCTC (sugars l2 d11 l4, PS) | 52 | 59 |  |  |
| CTTTTAACCAGAGTGGC (sugars l4 d11 l2, PS) |  |  | 62 |  |
| CTTTTAACCAGAGTGGCA (sugars l1 d14 l3, PS) |  |  | 61 |  |
| CTTTTAACCAGAGTGGCATC (sugars l2 d16 l2, PS) |  |  | 57 |  |
| GAAAATCTCAACTACCATT (sugars l5 d12 l2, PS) |  |  | 60 |  |
| GACTACATTCTCAATA (sugars l3 d10 l3, PS) | 30 | 50 |  |  |
| GATCATTCTCAACAATT (sugars l5 d6 l1 d1 l4, PS) |  |  | 0 |  |
| GATCATTCTCAACAATTAA (sugars lldllddddddddlldlll, PS) |  |  | 28 |  |

Reference: the OligoGym collection
